Experimental data reported in patent publication US20080139546A1, “Tetrahydroquinoline, indoline, and related aniline derivatives of heterocycle-fused benzodioxan methylamines” (Wyeth, priority 2006, published 2008).

How the values were obtained:
[1] = molecular target: T1, Human 5-HT1A Receptor (Homo sapiens, UniProt P08908); experiment: 8-OH-DPAT binding, human 5-HT1A receptor cell line (displacement of [3H]-OHDPAT, stably transfected CHO cells); conditions: [3H]-OHDPAT 1.5 nM, read-out: h5HT1A Affinity Ki (nM) (Example 17)
T1 construct: expressed in transfected cells; host or cells: CHO cells (Chinese hamster ovary), stably transfected
T1 sequence (P08908 1-422): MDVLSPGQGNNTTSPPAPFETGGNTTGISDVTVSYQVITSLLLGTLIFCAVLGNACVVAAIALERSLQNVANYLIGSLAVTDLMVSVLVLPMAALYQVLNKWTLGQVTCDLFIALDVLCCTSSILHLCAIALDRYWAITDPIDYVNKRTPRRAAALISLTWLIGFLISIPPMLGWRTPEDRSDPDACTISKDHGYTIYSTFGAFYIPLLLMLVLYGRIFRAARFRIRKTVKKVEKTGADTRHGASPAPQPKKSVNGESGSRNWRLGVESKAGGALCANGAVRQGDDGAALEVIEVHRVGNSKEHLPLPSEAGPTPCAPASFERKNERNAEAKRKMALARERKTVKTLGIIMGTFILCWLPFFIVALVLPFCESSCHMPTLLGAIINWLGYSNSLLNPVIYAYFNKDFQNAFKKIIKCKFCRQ
Experimental: Affinity for the serotonin 5-HT1A receptor was established by testing each compound's ability to displace [^3H]-OHDPAT (dipropylaminotetralin) from the 5-HT1A serotonin receptor following a modification of the procedure of Hall et al., J. Neurochem. 44:1685-1696 (1985). Stably transfected Chinese hamster ovary (CHO) cells were plated and grown in Dulbecco's Modified Eagle's Medium (DMEM) containing 10% heat inactivated fetal bovine serum (FBS) and non-essential amino acids. Cells were scraped off the plate, transferred to centrifuge tubes, and washed twice by centrifugation (2000 rpm for 10 minutes at 4° C.) in buffer (50 mM Tris, pH 7.5). The resulting pellets were aliquoted and stored at −80° C. On the day of assay, the cells were thawed on ice, and re-suspended in buffer. The binding assay was performed in a 96-well microtiter plate in a total volume of about 250 μL. Non-specific binding was determined in the presence of 10 μM 5-HT; the final radio ligand concentration was 1.5 nM. Following a 30 minute incubation at room temperature, the reaction was terminated by the addition of ice cold buffer and rapid filtration through a GF/B filter presoaked for 30 minutes in 0.5% polyethyleneimine (PEI). Compounds were initially tested in a single point assay to determine percent inhibition at 1 μM, 0.1 μM, and 0.01 μM. Subsequently, Ki values were determined for compounds defined to be active. Percent inhibition Ki was determined by RFComp (Lundon Software, Chagrin Falls, Ohio), with serotonin and 8-OH-DPAT as the reference compounds.
High affinity for the receptor is evidence of a compound's ability to directly modulate activity at the 5-HT1A receptor.

[2] = molecular target: T1, Human 5-HT1A Receptor; experiment: cAMP radioimmunoassay (RIA) in human 5-HT1A receptor cell line, inhibition of forskolin stimulated cAMP; format: cell-based; conditions: forskolin (1 μM) stimulated cAMP, stably transfected CHO cells; read-out: h5HT1A cAMP EC50 (nM) (Example 19)
Experimental: Certain effects of 5-HT (e.g., certain effects mediated by the interaction of 5-HT with the 5-HT1A receptor) are mediated by cAMP. To test the ability of compounds described herein to modulate cAMP, a radioimmunoassay (RIA) method was used. Briefly, stably transfected CHO cells were grown in DMEM containing 10% heat inactivated FBS and non-essential amino acids. The cells were plated at a density of 10^6 cells per well in a 96-well plate and incubated for 2 days in a CO2 incubator. On the second day, the medium was replaced with 0.1 ml Krebs and incubated 15 minutes at 37° C. The medium was then replaced with Krebs buffer containing 500 μM isobutylmethylxanthine (IBMX) and incubated for approximately 5 minutes at 37° C. Wells were treated with forskolin (1 μM final concentration) followed immediately by test compound (0.1 and 1 μM for the initial screen) and incubated for an additional 10 minutes at 37° C. The reaction was terminated by removal of the medium and the addition of 0.5 ml ice cold assay buffer (supplied in the RIA kit). Plates were stored at −20° C. prior to assessment of cAMP formation by RIA. The cAMP kit was obtained from Amersham (Piscataway, N.J.) and the RIA was performed as per the kit instructions. In the initial screen, percent inhibition of forskolin stimulated cAMP was measured. […] These compounds behaved as either full agonists or partial agonists. 5-HT, BMY 7378, buspirone, and 8-OH-DPAT were used as reference compounds.
All compounds tested inhibited the forskolin-stimulated increase in […].

[3] = molecular target: T2, serotonin transporter (Rattus norvegicus, UniProt P31652); experiment: 3H-paroxetine binding to rat frontal cortical membranes, affinity for the serotonin transporter; conditions: 3H-paroxetine 0.1 nM, male Sprague Dawley rat frontal cortical membranes; read-out: 5HT Uptake r5HT-T Ki (nM) (Example 18)
T2 construct: frontal cortical membranes prepared from male Sprague Dawley rats; from tissue; host or cells: rat frontal cortex membranes (male Sprague Dawley)
T2 sequence (P31652 whole entry): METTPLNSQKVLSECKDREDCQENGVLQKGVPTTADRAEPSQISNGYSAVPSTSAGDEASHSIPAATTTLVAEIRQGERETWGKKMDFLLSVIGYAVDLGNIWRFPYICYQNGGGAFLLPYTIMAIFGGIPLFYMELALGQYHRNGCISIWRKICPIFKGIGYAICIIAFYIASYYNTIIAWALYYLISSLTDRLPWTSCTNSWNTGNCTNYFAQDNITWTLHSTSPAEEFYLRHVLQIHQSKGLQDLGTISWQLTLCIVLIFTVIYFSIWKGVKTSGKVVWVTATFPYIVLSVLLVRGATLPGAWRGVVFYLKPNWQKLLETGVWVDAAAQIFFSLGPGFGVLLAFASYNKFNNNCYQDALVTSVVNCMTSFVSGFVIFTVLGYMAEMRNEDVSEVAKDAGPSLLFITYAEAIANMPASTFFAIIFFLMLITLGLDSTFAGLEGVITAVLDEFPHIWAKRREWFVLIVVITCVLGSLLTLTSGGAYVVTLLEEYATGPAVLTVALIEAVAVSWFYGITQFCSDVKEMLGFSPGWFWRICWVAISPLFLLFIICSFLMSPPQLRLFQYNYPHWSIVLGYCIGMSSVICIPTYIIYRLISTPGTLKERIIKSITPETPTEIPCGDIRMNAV
Experimental: A protocol similar to that used by Cheetham et al. (Neuropharmacol. 32:737-743, 1993) was used to determine the affinity of compounds for the serotonin transporter (i.e., by determining the relative ability of a compound to displace ^3H-paroxetine from male rat frontal cortical membranes). Briefly, frontal cortical membranes prepared from male Sprague Dawley rats were incubated with ^3H-paroxetine (0.1 nM) for 60 minutes at 25° C. All tubes also contained either vehicle, test compound (one to eight concentrations), or a saturating concentration of fluoxetine (10 μM) to define […]. All reactions were terminated by the addition of ice cold Tris buffer followed by rapid filtration using a Tom Tech filtration device to separate bound from free ^3H-paroxetine. Bound radioactivity was quantitated using a Wallac 1205 Beta Plate® counter. Nonlinear regression analysis was used to determine IC50 values which were converted to Ki values using the method of Cheng and Prusoff (Biochem. Pharmacol. 22: 3099-3108, 1973); […].
This affinity translates to the blockade of 5-HT uptake, i.e., the ability of a compound increase synaptic 5-HT levels and to act like an SSRI.

[4] = molecular target: T3, Human 5-HT Transporter (Homo sapiens, UniProt P31645); experiment: Inhibition of 3H-5-HT uptake by Jar cells possessing the human 5-HT transporter; format: cell-based; conditions: Jar cells treated with staurosporine, read-out: 5HT Uptake h5HT-T IC50 (nM) (Example 20)
T3 construct: endogenous in cells; host or cells: Jar cells (human carcinoma cell line), treated with staurosporine
T3 sequence (P31645 whole entry): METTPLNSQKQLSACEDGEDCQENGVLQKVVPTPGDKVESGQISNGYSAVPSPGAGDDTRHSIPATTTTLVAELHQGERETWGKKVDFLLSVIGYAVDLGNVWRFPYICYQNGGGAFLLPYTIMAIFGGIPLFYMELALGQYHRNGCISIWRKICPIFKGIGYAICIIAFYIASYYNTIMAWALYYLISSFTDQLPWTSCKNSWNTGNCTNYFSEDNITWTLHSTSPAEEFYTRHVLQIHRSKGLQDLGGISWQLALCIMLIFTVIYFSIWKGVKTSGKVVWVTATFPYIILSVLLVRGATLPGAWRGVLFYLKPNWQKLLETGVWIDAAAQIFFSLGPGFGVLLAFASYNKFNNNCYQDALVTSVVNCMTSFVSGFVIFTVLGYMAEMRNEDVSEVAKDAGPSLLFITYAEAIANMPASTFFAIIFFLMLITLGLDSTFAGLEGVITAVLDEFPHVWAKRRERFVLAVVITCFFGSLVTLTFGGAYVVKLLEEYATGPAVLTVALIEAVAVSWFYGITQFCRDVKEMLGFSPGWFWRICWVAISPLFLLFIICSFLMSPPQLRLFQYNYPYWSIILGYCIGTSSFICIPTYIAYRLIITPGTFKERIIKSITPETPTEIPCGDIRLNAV
Experimental: [Staurosporine greatly increases the expression of the 5-HT-Transporter.] On the day of assay, vehicle, excess of fluoxetine, or test compound was added to various wells on the plate. ^3H-5-HT was then aliquoted into all wells and the samples were incubated at 37° C. for 5 minutes. The wells were then washed with ice cold 50 mM Tris HCl (pH 7.4) buffer and aspirated to remove free ^3H-5-HT. 25 μL 0.25 M NaOH was then added to each well to lyse the cells and 75 μL scintillation cocktail (Microscint™ 20) was added prior to quantitation on a Packard TopCount® machine. Tubes with vehicle represent total possible uptake, radioactivity counted in tubes with excess fluoxetine represent nonspecific binding/uptake and were subtracted from the total possible uptake to give total possible specific uptake. This nonspecific binding (usual low in number) was then subtracted from the counts obtained in wells with various test compounds (or different concentrations of a test compound) resulting in uptake in the presence of drug. Specific uptake was then expressed as a percent of control values and was analyzed using nonlinear regression analysis (Prizm) to determine IC50 values. If the compound was active in inhibiting 5-HT uptake, its counts will be close to that obtained with fluoxetine.
This blockade, in vivo, would be expected to result in an increase in extracellular 5-HT concentrations.

Ki [1]: 0.66 nM | EC50 [2]: 9.25 nM | Ki [3]: 11.8 nM | IC50 [4]: 438 nM
Compound: Cc1ccc2c3c(ccc2n1)OC[C@H](CNCCCCN1CCCc2ccccc21)O3 [Example 15, 4-(3,4-dihydroquinolin-1(2H)-yl)-N-{[(2S)-8-methyl-2,3-dihydro[1,4]dioxino[2,3-f]quinolin-2-yl]methyl}butan-1-amine]
